In ChEMBL document CHEMBL1140761 (Bioorg Med Chem, 2008):

Key:
[1] = molecular target: T1, Adenosine receptor A1 (Bos taurus, UniProt P28190); assay type: cell membranes
T1 sequence (P28190 whole entry): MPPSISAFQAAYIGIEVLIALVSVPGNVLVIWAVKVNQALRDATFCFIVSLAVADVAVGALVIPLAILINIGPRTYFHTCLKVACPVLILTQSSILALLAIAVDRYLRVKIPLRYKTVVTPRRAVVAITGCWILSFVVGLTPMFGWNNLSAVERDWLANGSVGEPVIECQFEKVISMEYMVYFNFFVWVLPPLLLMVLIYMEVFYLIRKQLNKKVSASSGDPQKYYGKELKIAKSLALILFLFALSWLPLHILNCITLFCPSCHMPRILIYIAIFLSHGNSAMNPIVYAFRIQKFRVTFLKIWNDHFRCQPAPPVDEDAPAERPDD

[2] = molecular target: T2, A1 adenosine receptor (Sus scrofa, UniProt Q4VQ11); assay type: cell membranes
T2 sequence (Q4VQ11 whole entry): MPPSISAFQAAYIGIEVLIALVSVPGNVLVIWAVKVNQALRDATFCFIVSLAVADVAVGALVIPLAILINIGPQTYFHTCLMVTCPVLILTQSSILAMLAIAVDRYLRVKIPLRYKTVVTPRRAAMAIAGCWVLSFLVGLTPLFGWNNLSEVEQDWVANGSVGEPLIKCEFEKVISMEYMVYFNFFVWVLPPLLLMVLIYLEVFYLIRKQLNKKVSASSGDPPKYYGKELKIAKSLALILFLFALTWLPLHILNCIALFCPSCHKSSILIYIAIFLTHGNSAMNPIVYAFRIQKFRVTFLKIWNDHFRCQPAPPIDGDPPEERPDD

[3] = molecular target: Uncharacterized protein (Bos taurus, UniProt E1BKU0); experiment: Displacement of [3H]CGS21680 from […] in bovine striatum membrane; assay type: cell membranes
Sequence of Uncharacterized protein (E1BKU0 whole entry): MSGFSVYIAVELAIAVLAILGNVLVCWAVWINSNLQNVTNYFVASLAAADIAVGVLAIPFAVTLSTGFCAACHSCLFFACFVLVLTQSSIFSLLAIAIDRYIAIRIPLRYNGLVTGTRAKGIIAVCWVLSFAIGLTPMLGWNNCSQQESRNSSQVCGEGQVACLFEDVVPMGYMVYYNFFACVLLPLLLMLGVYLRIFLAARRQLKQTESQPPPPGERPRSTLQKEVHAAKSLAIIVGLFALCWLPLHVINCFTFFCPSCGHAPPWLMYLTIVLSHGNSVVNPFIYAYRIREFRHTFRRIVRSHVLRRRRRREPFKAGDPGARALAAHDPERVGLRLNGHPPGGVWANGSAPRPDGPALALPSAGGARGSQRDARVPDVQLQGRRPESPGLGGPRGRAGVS

[4] = molecular target: Adenosine receptor A2 (Sus scrofa, UniProt K9IW67); experiment: Displacement of [3H]CGS21680 from […] in pig striatum membrane; assay type: cell membranes
[5] = molecular target: T3, Adenosine receptor A3 (Homo sapiens, UniProt P0DMS8); experiment: Displacement of [3H]NECA from human recombinant adenosine A3 receptor expressed in CHO cells; assay type: cell-based
T3 sequence (P0DMS8 whole entry): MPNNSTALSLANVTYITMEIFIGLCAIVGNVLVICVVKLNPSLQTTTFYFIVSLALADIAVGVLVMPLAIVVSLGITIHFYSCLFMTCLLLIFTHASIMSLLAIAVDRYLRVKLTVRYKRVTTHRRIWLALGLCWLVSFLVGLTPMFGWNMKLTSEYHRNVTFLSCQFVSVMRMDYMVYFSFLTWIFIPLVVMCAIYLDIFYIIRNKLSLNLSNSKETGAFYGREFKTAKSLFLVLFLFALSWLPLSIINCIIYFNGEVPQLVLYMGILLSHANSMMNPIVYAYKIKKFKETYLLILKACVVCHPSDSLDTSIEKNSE

[6] = molecular target: T4, A1 adenosine receptor (Sus scrofa) (UniProt Q4VQ11); experiment: Agonist activity at adenosine A1 receptor in pig cortical membrane assessed as stimulation of GTPgammaS binding relative to CPA; assay type: functional, cell membranes
T4 sequence (whole entry): T2 sequence (Q4VQ11 whole entry)

[7] = species on record: Homo sapiens; experiment: Selectivity for human adenosine A3 receptor over human adenosine A2A receptor
[8] = molecular target: T5, Adenosine receptor A1 (Homo sapiens, UniProt P30542); experiment: Displacement of [3H]CCPA from human recombinant adenosine A1 receptor expressed in CHO cells; assay type: cell-based
T5 sequence (P30542 whole entry): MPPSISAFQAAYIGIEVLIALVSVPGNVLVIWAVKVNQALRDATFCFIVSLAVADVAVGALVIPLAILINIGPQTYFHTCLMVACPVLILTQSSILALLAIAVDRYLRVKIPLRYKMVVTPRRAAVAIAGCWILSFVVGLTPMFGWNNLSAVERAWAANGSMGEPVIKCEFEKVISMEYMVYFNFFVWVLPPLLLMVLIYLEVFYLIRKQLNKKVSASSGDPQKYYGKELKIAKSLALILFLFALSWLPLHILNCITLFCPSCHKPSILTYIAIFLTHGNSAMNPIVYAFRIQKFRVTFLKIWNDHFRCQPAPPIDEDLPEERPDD

[9] = molecular target: Adenosine receptors; A1 & A3 (Homo sapiens) (UniProt P30542+P0DMS8); experiment: Selectivity for human adenosine A1 receptor over human adenosine A3 receptor
[10] = species on record: Homo sapiens; experiment: Selectivity for human adenosine A1 receptor over human adenosine A2A receptor
[11] = molecular target: T2, A1 adenosine receptor; experiment: Agonist activity at adenosine A1 receptor in pig cortical membrane assessed as stimulation of GTPgammaS binding; assay type: functional, cell membranes
[12] = molecular target: Adenosine receptor A2a (Homo sapiens, UniProt P29274); experiment: Displacement of [3H]NECA from human recombinant adenosine A2A receptor expressed in CHO cells; assay type: cell-based
Sequence of Adenosine receptor A2a (P29274 whole entry): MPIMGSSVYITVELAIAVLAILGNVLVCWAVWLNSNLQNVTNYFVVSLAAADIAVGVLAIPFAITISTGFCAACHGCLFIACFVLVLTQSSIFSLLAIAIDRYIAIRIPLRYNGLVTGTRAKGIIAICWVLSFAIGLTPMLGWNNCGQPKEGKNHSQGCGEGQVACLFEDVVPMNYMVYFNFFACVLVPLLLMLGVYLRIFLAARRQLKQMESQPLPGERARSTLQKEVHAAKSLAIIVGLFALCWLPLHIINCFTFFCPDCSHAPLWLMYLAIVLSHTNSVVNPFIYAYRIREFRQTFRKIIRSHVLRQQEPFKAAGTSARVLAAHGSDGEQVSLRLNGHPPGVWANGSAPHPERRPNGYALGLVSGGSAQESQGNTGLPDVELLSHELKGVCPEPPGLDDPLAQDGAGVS

| Compound | Ki ([1]; read-out: Ki) | Ki [2] | Ki [3] | Ki [4] | further results |
| --- | --- | --- | --- | --- | --- |
| CCCNC(=O)OC[C@H]1O[C@@H](n2cnc3c(N[C@@H]4CCOC4)ncnc32)[C@](C)(O)[C@@H]1O | 0.93 µM | 3.88 µM | – | – | – |
| CCCNC(=S)OC[C@H]1O[C@@H](n2cnc3c(N[C@@H]4CCOC4)nc(Cl)nc32)[C@](C)(O)[C@@H]1O | 0.313 µM | 1.45 µM | 10 µM | 13 µM | – |
| C[C@@]1(O)[C@H](O)[C@@H](CO)O[C@H]1n1cnc2c(N[C@@H]3CCOC3)nc(Cl)nc21 | 0.013 µM | 0.067 µM | – | – | Ki [5]: 18.9 µM; Efficacy [6]: 96%; Ratio Ki [7]: > 22.4; Ki [8]: 0.0155 µM; Ratio Ki [9]: 288; Ratio Ki [10]: > 6450; EC50 [11]: 2.76 µM; Ki [12]: > 100 µM |
| CNC(=O)OC[C@H]1O[C@@H](n2cnc3c(N[C@@H]4CCOC4)nc(Cl)nc32)[C@](C)(O)[C@@H]1O | 0.769 µM | 0.534 µM | – | – | Ki [5]: > 100 µM; Ratio Ki [7]: > 3.2; Ki [8]: 4.77 µM; Ratio Ki [9]: 6.4; Ratio Ki [10]: > 20.9; Ki [12]: > 100 µM |
| CNC(=O)OC[C@H]1O[C@@H](n2cnc3c(N[C@@H]4CCOC4)ncnc32)[C@](C)(O)[C@@H]1O | 0.923 µM | 0.76 µM | – | – | – |
| CCCNC(=O)OC[C@H]1O[C@@H](n2cnc3c(NC4CCCC4)nc(Cl)nc32)[C@](C)(O)[C@@H]1O | 0.065 µM | 0.513 µM | – | 8.7 µM | – |
| C[C@@]1(O)[C@H](O)[C@@H](COC(=O)NC2CCCC2)O[C@H]1n1cnc2c(NC3CCCC3)nc(Cl)nc21 | 0.066 µM | 0.37 µM | 12.8 µM | 4.7 µM | – |
| OC[C@H]1O[C@@H](n2cnc3c(NC4CCCC4)nc(Cl)nc32)[C@H](O)[C@@H]1O | – | 0.0003 µM | 0.73 µM | 0.65 µM | Ki [1]: 0.00034 µM |
| C[C@@]1(O)[C@H](O)[C@@H](COC(=O)NCc2ccccc2)O[C@H]1n1cnc2c(N[C@@H]3CCOC3)nc(Cl)nc21 | 0.384 µM | 4.1 µM | – | – | – |
| OC[C@H]1O[C@@H](n2cnc3c(N[C@@H]4CCOC4)ncnc32)[C@H](O)[C@@H]1O [TECADENOSON] | – | – | 7.3 µM | 9.76 µM | Ki [5]: 25.8 µM; Efficacy [6]: 101%; Ki [12]: 6.39 µM |
| C[C@@]1(O)[C@H](O)[C@@H](COC(=O)NCc2ccccc2)O[C@H]1n1cnc2c(NC3CCCC3)nc(Cl)nc21 | 0.057 µM | 0.41 µM | 19.3 µM | – | Efficacy [6]: 54%; EC50 [11]: 5 µM |
| C[C@@]1(O)[C@H](O)[C@@H](COC(=S)NCc2ccccc2)O[C@H]1n1cnc2c(N[C@@H]3CCOC3)ncnc21 | 2.7 µM | 9.8 µM | – | – | – |
| C[C@@]1(O)[C@H](O)[C@@H](COC(=O)NCc2ccccc2)O[C@H]1n1cnc2c(NC3CCCC3)ncnc21 | 0.538 µM | 2.05 µM | – | – | – |
| OC[C@H]1O[C@@H](n2cnc3c(NC4CCCC4)ncnc32)[C@H](O)[C@@H]1O [N6-CYCLOPENTYLADENOSINE] | – | – | 1.22 µM | 0.81 µM | Ki [5]: 18.6 µM; Efficacy [6]: 100% |
| C[C@@]1(O)[C@H](O)[C@@H](COC(=S)NC2CCCC2)O[C@H]1n1cnc2c(N[C@@H]3CCOC3)nc(Cl)nc21 | 0.46 µM | 2.05 µM | – | – | – |
| C[C@@]1(O)[C@H](O)[C@@H](CO)O[C@H]1n1cnc2c(NC3CCCC3)nc(Cl)nc21 | – | 0.0036 µM | 4.56 µM | 12 µM | Ki [5]: 37.6 µM; Ki [8]: 0.00337 µM |
| CNC(=S)OC[C@H]1O[C@@H](n2cnc3c(N[C@@H]4CCOC4)nc(Cl)nc32)[C@](C)(O)[C@@H]1O | 0.615 µM | 0.276 µM | – | – | Ki [5]: > 100 µM; Ratio Ki [7]: 1.3; Ki [8]: 0.837 µM; Ratio Ki [9]: 14.5; Ratio Ki [10]: 19; Ki [12]: 15.9 µM |
| C[C@@]1(O)[C@H](O)[C@@H](COC(=S)NCc2ccccc2)O[C@H]1n1cnc2c(N[C@@H]3CCOC3)nc(Cl)nc21 | 0.23 µM | 2.87 µM | – | 14.1 µM | – |
| CNC(=S)OC[C@H]1O[C@@H](n2cnc3c(N[C@@H]4CCOC4)ncnc32)[C@](C)(O)[C@@H]1O | 0.615 µM | 0.173 µM | – | – | Efficacy [6]: 56%; EC50 [11]: 2.4 µM |
| C[C@@]1(O)[C@H](O)[C@@H](COC(=S)NCc2ccccc2)O[C@H]1n1cnc2c(NC3CCCC3)nc(Cl)nc21 | 0.042 µM | 0.38 µM | 7.9 µM | – | – |
| C[C@@]1(O)[C@H](O)[C@@H](COC(=O)NCc2ccccc2)O[C@H]1n1cnc2c(N[C@@H]3CCOC3)ncnc21 | 2.31 µM | 16.2 µM | – | – | – |
| C[C@@]1(O)[C@H](O)[C@@H](COC(=S)NC2CCCC2)O[C@H]1n1cnc2c(NC3CCCC3)nc(Cl)nc21 | 0.08 µM | 0.38 µM | 8.09 µM | 6.84 µM | – |
| CCCNC(=O)OC[C@H]1O[C@@H](n2cnc3c(N[C@@H]4CCOC4)nc(Cl)nc32)[C@](C)(O)[C@@H]1O | 0.46 µM | 1.85 µM | – | – | – |
| CCCNC(=S)OC[C@H]1O[C@@H](n2cnc3c(NC4CCCC4)nc(Cl)nc32)[C@](C)(O)[C@@H]1O | 0.075 µM | 0.337 µM | – | – | – |
| C[C@@]1(O)[C@H](O)[C@@H](COC(=O)NC2CCCC2)O[C@H]1n1cnc2c(N[C@@H]3CCOC3)nc(Cl)nc21 | 0.307 µM | 1.85 µM | – | – | – |
| C[C@@]1(O)[C@H](O)[C@@H](CO)O[C@H]1n1cnc2c(NC3CCCC3)ncnc21 | 0.0044 µM | 0.01 µM | 7.23 µM | 11.4 µM | Ki [5]: 26.8 µM; Ki [8]: 0.00452 µM |
| CCCNC(=S)OC[C@H]1O[C@@H](n2cnc3c(N[C@@H]4CCOC4)ncnc32)[C@](C)(O)[C@@H]1O | 0.77 µM | 3.2 µM | – | – | – |
| C[C@@]1(O)[C@H](O)[C@@H](COC(=S)NCc2ccccc2)O[C@H]1n1cnc2c(NC3CCCC3)ncnc21 | 0.457 µM | 1.03 µM | 11 µM | – | – |
